pEC50, pIC50, pKi: −log10 of the molar value.
What was measured:
Menin-MLL = Menin-MLL (Homo sapiens (Human), UniProt O00255); test: Determination of binding constants (Ki) to Menin-MLL (HTRF); conditions: HTRF, 0.25 nM H-FL-Menin, 3.2 nM FITC-MLL-4-43, 24 hr incubation; for pKi: read-out: Menin-MLL Ki HTRF Assay: Ki
hERG = hERG (Homo sapiens (Human), UniProt Q12809); test: Patch clamp assay (hERG tail currents, whole-cell); type: cell-based; conditions: hERG transfected HEK 293 cells; for hERG % Remaining 10 μM: 10 μM compound; for hERG % Remaining 30 μM: 30 μM compound
hERG, sequence (Q12809 whole entry): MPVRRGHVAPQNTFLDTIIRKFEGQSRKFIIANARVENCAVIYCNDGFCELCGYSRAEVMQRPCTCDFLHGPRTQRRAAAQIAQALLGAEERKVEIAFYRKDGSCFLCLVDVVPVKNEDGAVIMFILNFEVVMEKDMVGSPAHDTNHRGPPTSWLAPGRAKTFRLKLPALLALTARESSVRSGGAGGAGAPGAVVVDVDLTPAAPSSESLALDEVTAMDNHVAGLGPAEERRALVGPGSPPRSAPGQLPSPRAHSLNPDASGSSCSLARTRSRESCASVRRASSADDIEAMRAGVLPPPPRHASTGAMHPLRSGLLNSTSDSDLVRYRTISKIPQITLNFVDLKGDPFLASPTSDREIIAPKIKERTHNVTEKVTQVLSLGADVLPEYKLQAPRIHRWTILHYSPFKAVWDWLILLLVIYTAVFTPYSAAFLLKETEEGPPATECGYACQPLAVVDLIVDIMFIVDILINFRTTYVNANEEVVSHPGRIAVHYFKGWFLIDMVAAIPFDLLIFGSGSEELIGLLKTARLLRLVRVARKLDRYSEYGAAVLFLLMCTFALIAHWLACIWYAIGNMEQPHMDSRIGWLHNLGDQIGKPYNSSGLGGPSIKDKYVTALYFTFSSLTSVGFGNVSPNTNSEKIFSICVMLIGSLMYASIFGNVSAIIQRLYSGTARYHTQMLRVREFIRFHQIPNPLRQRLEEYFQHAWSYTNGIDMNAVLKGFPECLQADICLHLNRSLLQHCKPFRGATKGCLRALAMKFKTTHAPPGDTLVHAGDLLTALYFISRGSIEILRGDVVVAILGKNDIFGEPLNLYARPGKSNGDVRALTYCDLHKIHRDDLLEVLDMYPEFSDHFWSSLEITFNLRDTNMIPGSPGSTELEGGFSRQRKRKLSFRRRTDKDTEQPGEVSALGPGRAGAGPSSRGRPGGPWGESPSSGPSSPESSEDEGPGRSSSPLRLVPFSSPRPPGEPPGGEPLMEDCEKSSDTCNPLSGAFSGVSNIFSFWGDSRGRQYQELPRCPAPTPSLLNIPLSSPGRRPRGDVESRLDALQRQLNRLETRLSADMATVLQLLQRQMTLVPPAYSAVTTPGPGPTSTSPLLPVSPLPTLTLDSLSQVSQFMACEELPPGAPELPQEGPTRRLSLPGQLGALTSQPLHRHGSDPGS
Procedure: The 35 mm culture dishes upon which cells were seeded at a density allowing single cells to be recorded were placed on the dish holder of the microscope and continuously perfused (at approximately 1 mL/min) with the bath solution described in section 4.6. All solutions applied to cells including the pipette solution were maintained at room temperature (19° C. to 30° C.). After formation of a Gigaohm seal between the patch electrodes and individual hERG stably transfected HEK 293 cells (pipette resistance range: 2.0 MΩ2 to 7.0 MΩ; seal resistance range: >1GΩ) the cell membrane across the pipette tip was ruptured to assure electrical access to the cell interior (whole-cell patch-configuration). In case the quality of the seal was poor, the process of seal formation was repeated with a different cell and a new pipette. As soon as a stable seal could be established, hERG outward tail currents were measured upon depolarization of the cell membrane to +20 mV for 2s (activation of channels) from a holding potential of −80 mV and upon subsequent repolarization to −40 mV for 3 s. This voltage protocol (as shown below) was run at least 10 times at intervals of 10 s. If current density was judged to be too low for measurement, another cell was recorded.
During wash-in of the test item the voltage protocol indicated above was run continuously again at 10 s intervals until the steady-state level of block was reached.
The IC50 was determined by fitting the dose response curve with a 2-parameter logistic function (amax=100%).

Menin-MLL, sequence (O00255 whole entry): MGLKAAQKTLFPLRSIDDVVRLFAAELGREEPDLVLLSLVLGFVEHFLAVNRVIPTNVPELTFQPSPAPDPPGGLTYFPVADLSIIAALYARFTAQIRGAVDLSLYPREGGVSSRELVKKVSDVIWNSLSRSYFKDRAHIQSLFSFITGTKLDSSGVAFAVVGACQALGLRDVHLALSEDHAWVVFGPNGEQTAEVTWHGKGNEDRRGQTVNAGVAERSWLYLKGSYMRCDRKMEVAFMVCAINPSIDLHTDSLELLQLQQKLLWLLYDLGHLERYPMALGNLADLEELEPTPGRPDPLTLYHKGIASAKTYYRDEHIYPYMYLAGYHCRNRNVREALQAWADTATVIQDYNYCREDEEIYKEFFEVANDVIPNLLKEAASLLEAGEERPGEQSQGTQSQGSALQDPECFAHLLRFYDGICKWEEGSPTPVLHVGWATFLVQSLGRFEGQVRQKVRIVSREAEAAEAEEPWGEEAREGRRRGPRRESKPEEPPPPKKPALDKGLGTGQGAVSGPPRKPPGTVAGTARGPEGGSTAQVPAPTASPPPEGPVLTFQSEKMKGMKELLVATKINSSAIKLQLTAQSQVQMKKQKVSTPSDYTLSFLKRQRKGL

SMILES	pEC50 (Menin-MLL)	pKi (Menin-MLL)	hERG % Remaining 10 μM (hERG)	hERG % Remaining 30 μM (hERG)	hERG % Remaining 1 μM (hERG; 1 μM compound)	hERG % Remaining 3 μM (hERG; 3 μM compound)	hERG % Remaining 100 μM (hERG; 100 μM compound)	pIC50 (hERG)
CCS(=O)(=O)N[C@@H]1CC[C@@H](CN2CCC3(CC2)CN(c2ncncc2Oc2ccc(F)cc2C(=O)N(C(C)C)C2CC2)C3)OC1 [Compound 19, N-cyclopropyl-2-((4-(7-(((2S,5R)-5-(ethylsulfonamido)tetrahydro-2H-pyran-2-yl)methyl)-2,7-diazaspiro[3.5]nonan-2-yl)pyrimidin-5-yl)oxy)-5-fluoro-N-isopropylbenzamide]	> 7.30	> 9.00	+++ (“+++” means ≥66%)	++ (“++” means ≥33% and <66%)				
CC(C)N(C(=O)c1cc(F)ccc1Oc1cncnc1N1CC2(CCN(C[C@@H]3CC[C@@H](NS(=O)(=O)C4CC4)CO3)CC2)C1)C1CC1 [Compound 21, 2-((4-(7-(((2S,5R)-5-(cyclopropanesulfonamido)tetrahydro-2H-pyran-2-yl)methyl)-2,7-diazaspiro[3.5]nonan-2-yl)pyrimidin-5-yl)oxy)-N-cyclopropyl-5-fluoro-N-isopropylbenzamide]	> 7.30	> 9.00	++ (“++” means ≥33% and <66%)	+ (“+” means <33%)				
CCS(=O)(=O)N[C@@H]1CC[C@@H](CN2CCC3(CC2)CN(c2ncncc2Oc2ccc(F)cc2C(=O)N(C(C)C)[C@H]2CCOC2)C3)OC1 [Compound 33, 2-((4-(7-(((2S,5R)-5-(ethylsulfonamido)tetrahydro-2H-pyran-2-yl)methyl)-2,7-diazaspiro[3.5]nonan-2-yl)pyrimidin-5-yl)oxy)-5-fluoro-N-isopropyl-N-((S)-tetrahydrofuran-3-yl)benzamide]	> 7.30	> 9.00	+++ (“+++” means ≥66%)	+++ (“+++” means ≥66%)				
CCS(=O)(=O)N[C@@H]1CC[C@@H](CN2CCC3(CC2)CN(c2ncncc2Oc2ccc(F)cc2C(=O)N(CC(F)F)C(C)C)C3)OC1 [Compound 34, N-(2,2-difluoroethyl)-2-((4-(7-(((2S,5R)-5-(ethylsulfonamido)tetrahydro-2H-pyran-2-yl)methyl)-2,7-diazaspiro[3.5]nonan-2-yl)pyrimidin-5-yl)oxy)-5-fluoro-N-isopropylbenzamide]	> 7.30	> 9.00	+++ (“+++” means ≥66%)	++ (“++” means ≥33% and <66%)	+++ (“+++” means ≥66%)	+++ (“+++” means ≥66%)	+ (“+” means <33%)	4.30 to 4.60
CCN(C(=O)c1cc(F)ccc1Oc1cncnc1N1CC2(CCN(C[C@@H]3CC[C@@H](NC(=O)NCC(F)(F)F)CO3)CC2)C1)C(C)C [Compound 37, N-ethyl-5-fluoro-N-isopropyl-2-((4-(7-(((2S,5R)-5-(3-(2,2,2-trifluoroethyl)ureido)tetrahydro-2H-pyran-2-yl)methyl)-2,7-diazaspiro[3.5]nonan-2-yl)pyrimidin-5-yl)oxy)benzamide]	> 7.30	> 9.00	+ (“+” means <33%)	+ (“+” means <33%)				
CCS(=O)(=O)N[C@@H]1CC[C@@H](CN2CCC3(CC2)CN(c2ncncc2Oc2ccc(F)cc2C(=O)N(CCC#N)C(C)C)C3)OC1 [Compound 43, N-(2-cyanoethyl)-2-((4-(7-(((2S,5R)-5-(ethylsulfonamido)tetrahydro-2H-pyran-2-yl)methyl)-2,7-diazaspiro[3.5]nonan-2-yl)pyrimidin-5-yl)oxy)-5-fluoro-N-isopropylbenzamide]	> 7.30	> 9.00	+++ (“+++” means ≥66%)	++ (“++” means ≥33% and <66%)				
CCS(=O)(=O)N[C@@H]1CC[C@@H](CN2CCC3(CC2)CN(c2ncncc2Oc2ccc(F)cc2C(=O)N(C(C)C)C2CC(F)(F)C2)C3)OC1 [Compound 44, N-(3,3-difluorocyclobutyl)-2-((4-(7-(((2S,5R)-5-(ethylsulfonamido)tetrahydro-2H-pyran-2-yl)methyl)-2,7-diazaspiro[3.5]nonan-2-yl)pyrimidin-5-yl)oxy)-5-fluoro-N-isopropylbenzamide]	> 7.30	> 9.00	+++ (“+++” means ≥66%)	++ (“++” means ≥33% and <66%)				
CCN(C(=O)c1cc(F)ccc1Oc1cncnc1N1CC2(CCN(C[C@@H]3CC[C@@H](NS(=O)(=O)c4ccccc4)CO3)CC2)C1)C(C)C [Compound 45, N-ethyl-5-fluoro-N-isopropyl-2-((4-(7-(((2S,5R)-5-(phenylsulfonamido)tetrahydro-2H-pyran-2-yl)methyl)-2,7-diazaspiro[3.5]nonan-2-yl)pyrimidin-5-yl)oxy)benzamide]	> 7.30	> 9.00	++ (“++” means ≥33% and <66%)	+ (“+” means <33%)				
CC(C)N(CC(F)F)C(=O)c1cc(F)ccc1Oc1cncnc1N1CC2(CCN(C[C@@H]3CC[C@@H](NS(=O)(=O)C4CC4)CO3)CC2)C1 [Compound 47, 2-((4-(7-(((2S,5R)-5-(cyclopropanesulfonamido)tetrahydro-2H-pyran-2-yl)methyl)-2,7-diazaspiro[3.5]nonan-2-yl)pyrimidin-5-yl)oxy)-N-(2,2-difluoroethyl)-5-fluoro-N-isopropylbenzamide]	> 7.30	> 9.00	+++ (“+++” means ≥66%)	++ (“++” means ≥33% and <66%)				
CCN(C(=O)c1cc(F)ccc1Oc1cncnc1N1CC2(CCN(C[C@@H]3CC[C@@H](NS(=O)(=O)N(C)C)CO3)CC2)C1)C(C)C [Compound 49, 2-((4-(7-(((2S,5R)-5-((N,N-dimethylsulfamoyl)amino)tetrahydro-2H-pyran-2-yl)methyl)-2,7-diazaspiro[3.5]nonan-2-yl)pyrimidin-5-yl)oxy)-N-ethyl-5-fluoro-N-isopropylbenzamide]	> 7.30	> 9.00	+++ (“+++” means ≥66%)	+++ (“+++” means ≥66%)				≤ 4.30
CCN(C(=O)c1cc(F)ccc1Oc1cncnc1N1CC2(CCN(C[C@@H]3CC[C@@H](NS(=O)(=O)c4ccccn4)CO3)CC2)C1)C(C)C [Compound 58, N-ethyl-5-fluoro-N-isopropyl-2-((4-(7-(((2S,5R)-5-(pyridine-2-sulfonamido)tetrahydro-2H-pyran-2-yl)methyl)-2,7-diazaspiro[3.5]nonan-2-yl)pyrimidin-5-yl)oxy)benzamide]	> 7.30	> 9.00	+++ (“+++” means ≥66%)	++ (“++” means ≥33% and <66%)				
CCN(C(=O)c1cc(F)ccc1Oc1cncnc1N1CC2(CCN(C[C@@H]3CC[C@@H](NS(=O)(=O)c4ccccc4Cl)CO3)CC2)C1)C(C)C [Compound 59, 2-((4-(7-(((2S,5R)-5-((2-Chlorophenyl)sulfonamido)tetrahydro-2H-pyran-2-yl)methyl)-2,7-diazaspiro[3.5]nonan-2-yl)pyrimidin-5-yl)oxy)-N-ethyl-5-fluoro-N-isopropylbenzamide]	> 7.30	> 9.00	+ (“+” means <33%)	+ (“+” means <33%)				
CCN(C(=O)c1cc(F)ccc1Oc1cncnc1N1CC2(CCN(C[C@@H]3CC[C@@H](NS(=O)(=O)c4ccc(OC)cc4)CO3)CC2)C1)C(C)C [Compound 62, N-Ethyl-5-fluoro-N-isopropyl-2-((4-(7-(((2S,5R)-5-((4-methoxyphenyl)sulfonamido)tetrahydro-2H-pyran-2-yl)methyl)-2,7-diazaspiro[3.5]nonan-2-yl)pyrimidin-5-yl)oxy)benzamide]	> 7.30	> 9.00	+ (“+” means <33%)	+ (“+” means <33%)				
CCN(C(=O)c1cc(F)ccc1Oc1cncnc1N1CC2(CCN(C[C@@H]3CC[C@@H](NS(=O)(=O)c4cccnc4)CO3)CC2)C1)C(C)C [Compound 63, N-Ethyl-5-fluoro-N-isopropyl-2-((4-(7-(((2S,5R)-5-(pyridine-3-sulfonamido)tetrahydro-2H-pyran-2-yl)methyl)-2,7-diazaspiro[3.5]nonan-2-yl)pyrimidin-5-yl)oxy)benzamide]	> 7.30	> 9.00	+++ (“+++” means ≥66%)	++ (“++” means ≥33% and <66%)				
CCN(C(=O)c1cc(F)ccc1Oc1cncnc1N1CC2(CCN(C[C@@H]3CC[C@@H](NS(=O)(=O)N4CCOCC4)CO3)CC2)C1)C(C)C [Compound 64, N-Ethyl-5-fluoro-N-isopropyl-2-((4-(7-(((2S,5R)-5-(morpholine-4-sulfonamido)tetrahydro-2H-pyran-2-yl)methyl)-2,7-diazaspiro[3.5]nonan-2-yl)pyrimidin-5-yl)oxy)benzamide]	> 7.30	> 9.00	+++ (“+++” means ≥66%)	++ (“++” means ≥33% and <66%)				
CCN(C(=O)c1cc(F)ccc1Oc1cncnc1N1CC2(CCN(C[C@@H]3CC[C@@H](NS(=O)(=O)c4ccccc4OC)CO3)CC2)C1)C(C)C [Compound 65, N-Ethyl-5-fluoro-N-isopropyl-2-((4-(7-(((2S,5R)-5-((2-methoxyphenyl)sulfonamido)tetrahydro-2H-pyran-2-yl)methyl)-2,7-diazaspiro[3.5]nonan-2-yl)pyrimidin-5-yl)oxy)benzamide]	> 7.30	> 9.00	++ (“++” means ≥33% and <66%)	+ (“+” means <33%)				

— patent US11919901B2 (Syndax Pharmaceuticals, Inc., priority 2021, dated 2024)
